Measurements: patent US20130273564A1, “DISPERSION INJECTION METHODS FOR BIOSENSING” (priority 2010, published 2013)

Test system: partially denatured carbonic anhydrase II
Conditions: sigmoidal TDi, degraded surface, 10° C., global two-site interaction model
Description: A second sensing surface remained uncoated to provide an accurate reference surface. […] FCI was performed by separately injecting 50 μL of each dilution at a rate of 50 μL min^−1. EDTA was excluded from the buffer to maintain the binding activity of the Zn-dependent carbonic anhydrase 11.
Two separate sigmoidal TDi assays were performed. The first sigmoidal TDi assay (FIG. 8B) was performed by injecting 250 μL of analyte sample at a flow rate of 100 μL min^−1 using a dispersion tube having a total volume capacity of 512 μL and a diameter of 0.50 mm. […] The second sigmoidal TDi assay (FIG. 8C) was performed by injecting 250 μL of analyte sample at a flow rate of 50 μL min^−1 using a dispersion tube having a total volume capacity of 512 μL and a diameter of 0.50 mm. […] The carbonic anhydrase II-coated surface was permitted to degrade at 25° C. for several days before performing the sigmoid TDi analysis. The second TDi assay was performed at 10° C. to preserve weak non-specific binding in order to mimic a realistic complex data set.

- D: 4.49(1)×10^−10 m^2s^−1
SMILES: NS(=O)(=O)c1cc(C(=O)O)c(NCc2ccco2)cc1Cl [furosemide]
